The values below come from patent US5331089A, “Peptides useful as tachykinin agonists” (Merck Sharpe & Dohme, Ltd., priority 1988, dated 1994).

For the assay, the target named is T1, NK-2 tachykinin receptor (Rattus norvegicus, UniProt P16610).
T1 construct: The vas deferens is dissected free from the surrounding connective tissue and suspended in a 3 ml organ bath; from tissue; host or cells: isolated rat vas deferens (male Wistar rat), longitudinal muscle
T1 sequence (P16610 1-390): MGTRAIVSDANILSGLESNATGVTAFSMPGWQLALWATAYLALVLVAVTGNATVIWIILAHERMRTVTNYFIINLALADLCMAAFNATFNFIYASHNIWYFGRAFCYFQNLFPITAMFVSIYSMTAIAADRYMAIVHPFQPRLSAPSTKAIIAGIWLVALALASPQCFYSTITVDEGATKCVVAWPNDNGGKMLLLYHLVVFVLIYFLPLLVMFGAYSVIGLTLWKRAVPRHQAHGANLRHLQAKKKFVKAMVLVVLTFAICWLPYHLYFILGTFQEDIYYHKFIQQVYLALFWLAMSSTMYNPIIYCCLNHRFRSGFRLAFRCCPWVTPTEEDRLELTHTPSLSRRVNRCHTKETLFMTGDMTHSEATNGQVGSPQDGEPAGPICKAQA
Description: Isolated rat vas deferens preparation: antagonism of eledoisin-induced increase in field-stimulated twitch. In kind it is cell-based. The settings on record: isolated Wistar rat vas deferens, eledoisin as standard agonist, pA2 (-logKb) estimated from dose ratio; for Kb: read-out: pA2 (against eledoisin) (converted). How it is done: The activity of the compounds of the accompanying Examples as tachykinin receptor antagonists was evaluated using the following method:
The tachykinin receptor present in the longitudinal muscle of the rat vas deferens has been characterised, using natural and synthetic tachykinins, as `NK-2`. This preparation is therefore used to determine the selectivity and potency of the peptides for this receptor sub-type.
Male Wistar rats weighing 200-300 g are killed by decapitation. The vas deferens is dissected free from the surrounding connective tissue and suspended in a 3 ml organ bath under an initial resting tension of 1 g. The tissue is maintained at 37° C. in modified KREBS HENSALEIT solution (NaCl 118.4, KCl 4.7, CaCl2 2.5, KH2 PO4 1.18, MgSO4.7H2 O 1.19, NaHCO3 25.0, D-glucose 11.1 mM), which is continuously gassed with a mixture of 95% O2 and 5% CO2. Field stimulated responses are elicited by trains of pulses delivered for 1 second every 20 seconds (7 Hz, 70-80 V, individual pulse duration 0.5 ms). […] Contractions remain reasonably constant for 3-4 hours with no spontaneous changes in resting tension. A dose-cycle of 10-15 minutes is used, drug contact time being about 3-5 minutes.
In all experiments eledoisin is used as a standard agonist. Eledoisin, in the dose range 10^-8 -3×10^-6 M, produces a dose-related increase in twitch height and, to a lesser extent, basal tension. A second dose-response curve is then constructed to the peptide under investigation.
To determine the potency of each peptide as an NK-2 antagonist, the test compound is added to the bathing medium, at an appropriate concentration, 20-30 minutes before the first dose of the second eledoisin dose-response curve. Thereafter addition of the test compound 5-10 minutes before the eledoisin dose is sufficient. The percentage increase in twitch produced by eledoisin in the presence and absence of the antagonist is expressed as a percentage of the maximum response of each individual dose-response curve. Thus all dose-response curves have the same maximum. From the dose ratio an estimate of the pA2 (-logKb) for each test compound can be determined:
pA2 =log[(DR-1)/(antagonist conc.)]

Where a SMILES comes first, the peptide text is derived from it.

`CSCC[C@@H]1NC(=O)[C@H](CC(C)C)NC(=O)CNC(=O)[C@H](Cc2ccccc2)NC(=O)[C@H](Cc2c[nH]c3ccccc23)NC(=O)[C@H](CCC(N)=O)NC1=O` [Example 3, Cyclo (Gln-Trp-Phe-Gly-Leu-Met)] (cyclo(FGLMQW)): the Kb was 10 nM.

In the case of `CSCC[C@@H]1NC(=O)[C@H](CC(C)C)N2CC[C@@H](NC(=O)[C@H](Cc3ccccc3)N(C)C(=O)[C@@H](Cc3c[nH]c4ccccc34)NC(=O)[C@H](CCC(N)=O)NC(=O)[C@H](CCSC)NC(=O)[C@H](CC(C)C)N3CC[C@@H](NC(=O)[C@H](Cc4ccccc4)N(C)C(=O)[C@@H](Cc4c[nH]c5ccccc45)NC(=O)[C@H](CCC(N)=O)NC1=O)C3=O)C2=O` [Example 5b, cyclo (Gln-D-Trp-(N-Me)Phe-(R)Gly[ANC-2]Leu-Met2], the Kb is 7940 nM.

Consider “Ac-LMQWFG-NH2 [Example 6, Acetyl-Leu-Met-Gln-Trp-Phe-Gly-NH2]”, for which the Kb was 158 nM.

For “Cyclo(Gln-Npa-Phe-(R)Gly[ANC-2]Leu-Met) [Example 2]”, the “pA2 (against eledoisin)” value is reported as 5.6.
